# Assay results from patent US20230059009A1, “INHIBITORS OF LIN28 AND METHODS OF USE THEREOF” (The Regents of the University of California, priority 2019, published 2023).
# Entries after “also recorded” stand apart in the source; their conditions may differ.
# Experiments:
# MOLM-13 (no LIN28B) = assay: Subcutaneous MOLM-13 AML xenograft; assay type: in vivo; settings: MOLM-13 subQ in NSG mice, 100 mg/kg IP every other day
# Experimental: (§2) Thus, we subcutaneously (subQ) implanted THP-1 (high LIN28B) cells or MOLM-13 (no LIN28B) into NSG mice and 12 d later (tumor size=40 mm^2) started administration of 1632 IP at 100 mg/kg every other day.
# [1] = tested on: let-7a/b and let-7 target genes; assay: miRNA and let-7 target gene expression in primary AML patient cells; assay type: cell-based, human; settings: primary AML cells from three relapsed patients; 80-120 μM, 72 h
# Excerpt: To measure the complete degree to which LN1632 regulates gene expression, we carried out RNA sequencing (RNAseq) in LSC-like Kasumi-1 cells. […] Importantly, we confirmed this gene expression pattern in primary AML cells from three relapsed patients (validated for LIN28B overexpression compared to healthy WBM). […] This is important because NFκB1, regulated by let-7 through IL6 (23) is, together with other BCL-2 family members (BAX, BCL2L15 and BMF, FIG. 5A), a well characterized gene associated with unique properties of LSC survival and AML relapse (45, 59, 60). […] We next explored the effect of LN1632 on primary AML cells.
# MYC-driven cancers = assay: Cell viability and cell counting assays in cancer cells; assay type: cell-based; settings: TNBC, CRPC, lung and colorectal adenocarcinoma cells
# Experimental: To test whether LN1632 and novel analogs thereof affect cancer cell growth, cell viability and cell counting assays in TNBC (FIG. 14B-D), castration resistant prostate cancer cells (CRPC, FIG. 15A-C) and colorectal cancer cells (CRC, FIG. 15A-C) were performed.
# (§1) To measure cell viability, cell titer glow (CTG, Promega CellTiter-Glo 2.0 Assay) and MTT assays (SigmaAldrich, Cell Proliferation Kit I) were performed. Briefly, cells were serum starved overnight prior to seeding in 96-well plates. Following 24 h incubation, cells were treated with increasing concentrations of JGJ compounds for 96 hr. At assay read-out, CellTiter-Glo reagent was added and luminescence was measured after 10-minutes incubation at room temperature. For the MTT assay, MTT labeling reagent was added and incubated for 4 h. Subsequently, medium was removed and 50 μL DMSO was added to solubilize the crystals, and absorbance was measured at 570 nm. Cell viability was calculated as (Sample-Background)/(Control-Background). Current standard of care drugs, Enzalutamide, Palbociclib and Cetuximab were used as comparative controls.
# LIN28B protein = LIN28B protein (Homo sapiens, UniProt Q6ZN17); assay: Western blot of LIN28B protein levels in AML cells; settings: Kasumi-1 and THP-1; 1632 120-160 μM
# Sequence of LIN28B protein (Q6ZN17 whole entry): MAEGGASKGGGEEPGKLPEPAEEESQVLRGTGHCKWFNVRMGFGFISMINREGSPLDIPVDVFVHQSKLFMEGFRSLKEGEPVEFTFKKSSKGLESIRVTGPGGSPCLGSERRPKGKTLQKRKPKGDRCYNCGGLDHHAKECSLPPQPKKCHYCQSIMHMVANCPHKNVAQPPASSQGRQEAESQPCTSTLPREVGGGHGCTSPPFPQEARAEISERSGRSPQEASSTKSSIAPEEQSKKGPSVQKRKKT
# Experimental: as §2
# MCF7 = assay: Cell viability, CTG, MCF7; assay type: cell-based; settings: Homo sapiens, MCF7 (Breast)
# Experimental: as §1
IC50 (MCF7) [µM],Compound,Tumor growth (MOLM-13 (no LIN28B)),Mature let-7a/b and let-7 target gene expression [1],Proliferation and apoptosis of cancer cells (MYC-driven cancers),LIN28B protein levels (LIN28B protein)
,CC(=O)N(C)c1cccc(-c2ccc3nnc(C)n3n2)c1 [LN1632],minimal effect on tumor growth; also recorded: significantly reduced tumor growth in THP-1 but not MOLM-13,"dose-dependent, significant upregulation of mature let-7a/b and downregulation of multiple let-7 target genes",reduced proliferation and induced apoptosis preferentially in MYC-driven cancers,inhibits LIN28B protein expression; also recorded: dose-dependently decreases LIN28B protein levels
115,"CC(=O)Nc1cccc(-c2ccc3ncc(C)n3n2)c1 [JGJ007, N-(3-(3-Methylimidazo[1,2-b]pyridazin-6-yl)phenyl)acetamide]",,,,
